Reference: patent US20220047569A1, “METHOD AND COMPOUND FOR USE, IN TREATING AND/OR PREVENTING NETOSIS” (Jubilant EpiPad LLC, priority 2020, published 2022)
Counter-ions that a name gives are not always drawn.

Test system: Histone H3 Citrullination in Neutrophils
Assay: Citrullination ELISA (Citrullinated Histone H3) in calcium ionophore stimulated neutrophils
Format: cell-based
Settings: Neutrophil; human neutrophils, 25 μM calcium ionophore, CitH3 ELISA
Procedure: Neutrophils were isolated according to the EasySep Direct Human Neutrophil Isolation Kit. In short, 50 mL of blood sample was drawn in a vacutainer containing K2EDTA from a healthy donor. To the whole blood, the isolation cocktail of 50 μL/mL was added. Then, in the next step 50 μL/mL of RapidSpheres™ was added to the sample. The sample was mixed evenly with the pipette and incubated for 10 minutes at room temperature. After incubation, PBS containing 1 mM EDTA was added at the ratio of 1:1 to the blood. Then the sample tube was incubated for 10 minutes. The enriched cell suspension was transferred into a new tube and RapidSpheres™ were added at 50 μL/mL to this suspension, mixed and incubated for 10 minutes at room temperature. At this step, the enriched cell suspension was carefully collected as a clear fraction into a fresh tube. Then, previous tube was replaced with the fresh tube containing enriched cell suspension. After the final separation, the clear solution of enriched cell suspension was carefully transferred to fresh tube which was ready to use for the experiment. These cells were then subjected to wash twice with plain RPMI 1640 media without Fetal Bovine Serum (FBS) and centrifuged at 1500 rpm for 5 minutes at room temperature. Cell counts were performed on each sample by Invitrogen cell counter. After the cell count, cell density was adjusted according to the experiment and re-suspended in complete RPMI media containing RPMI1640, 2% BSA and 1 mM CaCl2.
Freshly isolated neutrophils from human donor were seeded at a density of 0.5×10^6 cells in 400 μL cell suspension/well in a 24-well plate and cells were pre-incubated with the compound for 30 minutes by adding 50 μL of the 10× concentration to achieve the final 1× concentration of compound (10 μM, 1 μM and 0.1 μM). 1% DMSO was added in control wells. Then, the cells were stimulated in the presence and absence of calcium ionophore by adding 50 μL/well to achieve the final concentration of 25 μM. Upon incubation for 30 minutes with calcium ionophore, S7 nuclease was added to the wells and incubated for 10 minutes to disrupt NET DNA. Following incubation, 10 μL of 1 mM EDTA was added to inactivate nuclease. Cells were scrapped gently and transferred to the tubes, followed by centrifugation at 1500 rpm for 5 minutes. After centrifugation, supernatant was discarded, and 200 μL of lysis buffer containing PBS and 1× Protease inhibitor was added to the tubes. The obtained lysis was then subjected to mechanical shearing using Geno grinder by spin the plate at 2500 rpm for 10 minutes, followed by collection of supernatant and stored at −20° C. or immediately used for ELISA.
ELISA was performed as per Citrullinated Histone H3 ELISA Kit. All the buffer components from the kit were dissolved according to the manufactures protocol. ELISA Buffer Concentrate (10×) (Item No. 400060) and Wash Buffer Concentrate (400×) (Item No. 400060) along with polysorbate 20 (2000×) (Item No. 400035) was diluted to 1× with milliQ water. The standard for use in the ELISA was prepared as follows: • Obtain eight clean test tubes and label them, #1 through #8. Aliquot 4.9 mL of ELISA Buffer into tube #1. • Aliquot 500 μL of ELISA Buffer into the tubes #2-8. […] This tube is considered as blank, the lowest point on the standard curve.
100 μL of standards or diluted sample was added to the appropriate wells on the 96-well plate. Plates were covered with 96-well cover sheet and incubated for two hours at room temperature on an orbital shaker. The samples and standard were removed from the wells and washed four times with Wash Buffer. After the last wash, Anti-Histone H3 HRP Conjugate (Item No. 501441) (10×) stock solution was diluted in 1×ELISA buffer and 100 μL of the HRP Conjugate working solution was added to each well of the plate and incubated for one hour at room temperature on an orbital shaker. […]

SMILES	IC50 [nM]
CCn1c(-c2nc3cc(C(=O)N4CCC[C@@H](N)C4)ccn3c2C)cc2ccccc21 [Compound 4, (R)-(3-aminopiperidin-1-yl)(2-(1-ethyl-1H-indol-2-yl)-3-methylimidazo[1,2-a]pyridin-7-yl)methanone]	< 100
Cc1c(-c2cc3ccccc3n2CC2CCOCC2)nc2cc(C(=O)N3CCC[C@@H](N)C3)ccn12 [Compound 11, (R)-(3-aminopiperidin-1-yl)(3-methyl-2-(1-((tetrahydro-2H-pyran-4-yl)methyl)-1H-indol-2-yl)imidazo[1,2-a]pyridin-7-yl)methanone]	100 to 1000
Cc1cc(C(=O)N2CCC[C@@H](N)C2)cc2nc(-c3cc4ccccc4n3CC3CC3)c(C)n12 [Compound 25, (R)-(3-aminopiperidin-1-yl)(2-(1-(cyclopropylmethyl)-1H-indol-2-yl)-3,5-dimethylimidazo[1,2-a]pyridin-7-yl)methanone]	100 to 1000
Cc1cc(C(=O)N2CCC[C@@H](N)C2)cc2nc(-c3cc4ccccc4n3Cc3ccccc3)c(C)n12 [Compound 26, (R)-(3-aminopiperidin-1-yl)(2-(1-benzyl-1H-indol-2-yl)-3,5-dimethylimidazo[1,2-a]pyridin-7-yl)methanone]	< 100
Cc1cccc2cc(-c3nc4cc(C(=O)N5CCC[C@@H](N)C5)ccn4c3C)n(CC3CC3)c12 [Compound 30, (R)-(3-aminopiperidin-1-yl)(2-(1-(cyclopropylmethyl)-7-methyl-1H-indol-2-yl)-3-methylimidazo[1,2-a]pyridin-7-yl)methanone]	100 to 1000
CCn1c(-c2nc3cc(C(=O)N4CCC[C@@H](N)C4)ccn3c2C)cc2cc(F)ccc21 [Compound 39, (R)-(3-aminopiperidin-1-yl)(2-(1-ethyl-5-fluoro-1H-indol-2-yl)-3-methylimidazo[1,2-a]pyridin-7-yl)methanone]	< 100
Cc1csc(Cn2c(-c3nc4cc(C(=O)N5CCC[C@@H](N)C5)ccn4c3C)cc3ccccc32)n1 [Compound 41, (R)-(3-aminopiperidin-1-yl)(3-methyl-2-(1-((4-methylthiazol-2-yl)methyl)-1H-indol-2-yl)imidazo[1,2-a]pyridin-7-yl)methanone]	100 to 1000
Cc1c(-c2cc3cccc(Cl)c3n2CC2CC2)nc2cc(C(=O)N3CCC[C@@H](N)C3)ccn12 [Compound 44, (R)-(3-aminopiperidin-1-yl)(2-(7-chloro-1-(cyclopropylmethyl)-1H-indol-2-yl)-3-methylimidazo[1,2-a]pyridin-7-yl)methanone]	< 100
COc1ccc2cc(-c3nc4cc(C(=O)N5CCC[C@@H](N)C5)ccn4c3C)n(Cc3cccnc3)c2c1 [Compound 51, (R)-(3-aminopiperidin-1-yl)(2-(6-methoxy-1-(pyridin-3-ylmethyl)-1H-indol-2-yl)-3-methylimidazo[1,2-a]pyridin-7-yl)methanone]	> 1000
Cc1c(-c2cc3ccc(F)cc3n2CC2CC2)nc2cc(C(=O)N3CCC[C@@H](N)C3)ccn12 [Compound 52, (R)-(3-aminopiperidin-1-yl)(2-(1-(cyclopropylmethyl)-6-fluoro-1H-indol-2-yl)-3-methylimidazo[1,2-a]pyridin-7-yl)methanone trifluoroacetic acid salt]	100 to 1000

Now from value to compound:

IC50 [nM]	SMILES
< 100	Cc1c(-c2cc3ccccc3n2Cc2ccncc2)nc2cc(C(=O)N3CCC[C@@H](N)C3)ccn12 [Compound 10, (R)-(3-aminopiperidin-1-yl)(3-methyl-2-(1-(pyridin-4-ylmethyl)-1H-indol-2-yl)imidazo[1,2-a]pyridin-7-yl)methanone]
< 100	COc1ccc(Cn2c(-c3nc4cc(C(=O)N5CCC[C@@H](N)C5)ccn4c3C)cc3ccccc32)cc1 [Compound 12, (R)-(3-aminopiperidin-1-yl)(2-(1-(4-methoxybenzyl)-1H-indol-2-yl)-3-methylimidazo[1,2-a]pyridin-7-yl)methanone]
100 to 1000	Cc1c(-c2cc3ccccc3n2Cc2ccc(F)cc2)nc2cc(C(=O)N3CCC[C@@H](N)C3)ccn12 [Compound 13, (R)-(3-aminopiperidin-1-yl)(2-(1-(4-fluorobenzyl)-1H-indol-2-yl)-3-methylimidazo[1,2-a]pyridin-7-yl)methanone]
< 100	Cc1c(-c2cc3ccccc3n2Cc2cccnc2)nc2cc(C(=O)N3CCC[C@@H](N)C3)ccn12 [Compound 15, (R)-(3-aminopiperidin-1-yl)(3-methyl-2-(1-(pyridin-3-ylmethyl)-1H-indol-2-yl)imidazo[1,2-a]pyridin-7-yl)methanone]
< 100	Cc1c(-c2cc3ccccc3n2Cc2ccoc2)nc2cc(C(=O)N3CCC[C@@H](N)C3)ccn12 [Compound 37, (R)-(3-aminopiperidin-1-yl)(2-(1-(furan-3-ylmethyl)-1H-indol-2-yl)-3-methylimidazo[1,2-a]pyridin-7-yl)methanone]
< 100	COc1cccc(Cn2c(-c3nc4cc(C(=O)N5CCC[C@@H](N)C5)ccn4c3C)cc3ccccc32)c1 [Compound 42, (R)-(3-aminopiperidin-1-yl)(2-(1-(3-methoxybenzyl)-1H-indol-2-yl)-3-methylimidazo[1,2-a]pyridin-7-yl)methanone]
< 100	Cc1c(-c2cc3ccccc3n2Cc2ccc(F)cc2)nc2cc(C(=S)N3CCC[C@@H](N)C3)ccn12 [Compound 45, (R)-(3-aminopiperidin-1-yl)(2-(1-(4-fluorobenzyl)-1H-indol-2-yl)-3-methylimidazo[1,2-a]pyridin-7-yl)methanethione]
< 100	Cc1ncc(Cn2c(-c3nc4cc(C(=O)N5CCC[C@@H](N)C5)ccn4c3C)cc3ccccc32)s1 [Compound 49, (R)-(3-aminopiperidin-1-yl)(3-methyl-2-(1-((2-methylthiazol-5-yl)methyl)-1H-indol-2-yl)imidazo[1,2-a]pyridin-7-yl)methanone]
100 to 1000	COc1cccc(Cn2c(-c3nc4cc(C(=O)N5CCC[C@@H](N)C5)ccn4c3C)cc3cc(F)ccc32)c1 [Compound 53, (R)-(3-aminopiperidin-1-yl)(2-(5-fluoro-1-(3-methoxybenzyl)-1H-indol-2-yl)-3-methylimidazo[1,2-a]pyridin-7-yl)methanone]
< 100	Cc1c(-c2cc3ccc(F)cc3n2Cc2ccc(F)cc2)nc2cc(C(=O)N3CCC[C@@H](N)C3)ccn12 [Compound 54, (R)-(3-aminopiperidin-1-yl)(2-(6-fluoro-1-(4-fluorobenzyl)-1H-indol-2-yl)-3-methylimidazo[1,2-a]pyridin-7-yl)methanone]
> 1000	Cc1c(-c2cc3ccccc3n2Cc2ccc(F)cc2)nc2cc(C(=O)N3CCC[C@@H](NC(=O)/C=C/CN(C)C)C3)ccn12 [Compound 56, (R,E)-4-(dimethylamino)-N-(1-(2-(1-(4-fluorobenzyl)-1H-indol-2-yl)-3-methylimidazo[1,2-a]pyridine-7-carbonyl)piperidin-3-yl)but-2-enamide]
> 1000	Cc1c(-c2cc3ccccc3n2Cc2cncnc2)nc2cc(C(=O)N3CCC[C@@H](N)C3)ccn12 [Compound 58, (R)-(3-aminopiperidin-1-yl)(3-methyl-2-(1-(pyrimidin-5-ylmethyl)-1H-indol-2-yl)imidazo[1,2-a]pyridin-7-yl)methanone trifluoroacetic acid salt]
> 1000	Cc1c(-c2cc3ccccc3n2CC(C)C)nc2cc(C(=O)N3CCC[C@@H](N)C3)ccn12 [Compound 60, (R)-(3-aminopiperidin-1-yl)(2-(1-isobutyl-1H-indol-2-yl)-3-methylimidazo[1,2-a]pyridin-7-yl)methanone]
